Laboratory results taken from patent publication US9365598B2, “Phosphine derivatives of fluorescent compounds” (Pierce Biotechnology, Inc., priority 2011, dated 2016).

Assays:
[1] = Thermal stress stability of the compounds, purity by HPLC before and after storage; type: physicochemical; details: unit size 1 mg; for Purity Before thermal stress: packed under argon, HPLC before storage; for Purity After thermal stress: under argon, stored at 50° C. for 14 days, HPLC
Method: The inventive compounds were evaluated for stability compared to commercial dyes. All compounds were packed under argon as 1 mg portions in plastic vials. The vials were sealed under argon with a drying pad in an aluminium coated pouch, and then stored at 50° C. for 14 days. The results of the stability study for selected compounds are shown below where the determination of purity was by HPLC before and after storage.

mouse IgG immunoglobulin = experiment: Functional plate assay of compound-PEG4-GAM conjugates (RFU); type: binding; details: conjugates at 4 μg/ml on mouse IgG coated plates; FIGS. 13-14
Method: Performance of compound-GAM conjugates and compound-GAR conjugates was evaluated in a functional assay. Wells of a 96 white opaque plate were coated with target proteins mouse IgG immunoglobulin or rabbit IgG immunoglobulin. One hundred μl mouse or rabbit IgG at a concentration of 10 μg/ml was applied to the corresponding wells in columns 1 and 2. The target proteins were serially diluted 1:1 from the wells in columns 2 to 11 using 100 μl PBS. One hundred μl of samples from the wells in column 11 were discarded. One hundred μl PBS was added to the wells in column 12. The plates were incubated overnight at 4° C. and then blocked 2×200 μl with Thermo Scientific SuperBlock® Blocking Buffer. […] The plates were washed with 2×200 μl with PBS-Tween and 1×200 μl with PBS and filled with PBS buffer (100 μl/well) prior to scanning on Tecan Safire using 562 nmexcitation/576 nmemission to detect fluorescence intensity and DyLight 649 and DyLight 650 plated were measured using 654 nmexcitation/673 nmemission.
As shown in FIGS. 13-14, the fluorescence intensity, also termed the RFU, was compared for compound-PEG4-GAM conjugates where the compound was DyLight 549-phosphine (blue; FIG. 13), 550 Compound 1-phosphine (red; FIG. 13), DyLight 649-phosphine (red; FIG. 14) and 650 Compound 1-phosphine (blue; FIG. 14) at various concentrations. […]

A549 cell lysate = A549 cell lysate labeling with azido-sugars, SDS-PAGE; type: cell-based, human
Method: The inventive and commercial compounds were examined in A549 cell lysate labeling experiments using azido-sugars. Cell extracts were prepared from A549 incubated with azido-sugar N-azidoacetylgalactosamine […], N-azidoacetylglucosamine (GlcNAz) or N-azidoacetylmannosamine […]. The cell extracts were incubated with either 550 Compound 1-phosphine, 650 Compound 1-phosphine, CLICK-iT® Alexa555-Alkyne, or CLICK-iT® Alexa Fluor 647 DIBO Alkyne and analyzed by SDS-PAGE. The resulting lysates were separated by electrophoresis. 10 μg protein was loaded onto a PAGE gel (4-12% Bis-Tris gel).
The resulting lysates were separated by electrophoresis. […]
FIGS. 63-64 graphically represent band intensity of FIGS. 61-62. […] Relative fluorescence intensity for the gel image of FIG. 61 comparing Alexa555 (copper) and 550 Compound 1-phosphine (FIG. 63) and for the gel image of FIG. 62 comparing Alexa647 (copper-less) and 650 Compound 1-phosphine (FIG. 64).

A549 cells = experiment: Azido-sugar cell labeling, A549 cells; type: cell-based, human; details: N-azidoacetyl galactosamine, 100 μM dye-phosphine 3 h 37° C.
From the text: (§1) The inventive and commercial compounds were examined in cell labeling experiments using azido-sugars and adenocarcinomic human alveolar basal epithelial (A549) cells, human osteosarcoma (U2OS) cells, and immortalized proximal tubule epithelial (HK2) cells. As is known in the art, introduction of labeled sugar moieties results in incorporation of the labeled sugar moieties in various cellular molecules and locations.
Metabolically incorporated azido-labeled sugars, N-azidoacetyl galactosamine, N-azidoacetyl glucosamine, and N-azidoacetyl mannosamine was detected in vivo. Cells were incubated with 40 μM azido-sugar in cell culture media for 72 hours and the live cells were incubated with 100 μM of dye-labeled phosphine. The cells were then washed, fixed with 4% paraformaldehyde and counterstained with Hoechst 33342 which labels nuclei. For fixed cells, the cells were incubated with the azido-sugar, fixed with 4% paraformaldehyde, permeabilized with 0.1% Triton X-100, and incubated with 100 μM of dye-labeled phosphine. […]
Fluorescence intensity was measured in each spot identified using a specific Bio-Application with the ArrayScanVTI image analysis software. […]

HK2 cells = experiment: Azido-sugar cell labeling, HK2 cells; type: cell-based; details: 100 μM dye-phosphine
From the text: as §1
(§2) Metabolically incorporated azido-labeled sugars, N-azidoacetyl galactosamine, N-azidoacetyl glucosamine, and N-azidoacetyl mannosamine was detected in vivo. Cells were incubated with 40 μM azido-sugar in cell culture media for 72 hours and the live cells were incubated with 100 μM of dye-labeled phosphine. The cells were then washed, fixed with 4% paraformaldehyde and counterstained with Hoechst 33342 which labels nuclei. For fixed cells, the cells were incubated with the azido-sugar, fixed with 4% paraformaldehyde, permeabilized with 0.1% Triton X-100, and incubated with 100 μM of dye-labeled phosphine. In live cell labeling using the phosphine labeling reaction used 100 μM of the dye-labeled phosphine for three hours at 37° C., and the CLICK-iT® labeling reaction, using DIBO-Alexa dye, used 30 μM of the DIBO Alexa dye for one hour at room temperature (RT). In fixed cell labeling, the phosphine labeling reaction used 100 μM of the dye-labeled phosphine for three hours at 37° C., and the CLICK-IT® labeling reaction, using DIBO-Alexa dye, used 50 μM of the DIBO Alexa dye for one hour at RT in the presence of 5 μM copper for one hour at RT in the absence of copper.
HK2 cells, either live (column A) or fixed (column B), were labeled with N-azidoacetyl galactosamine followed by labeling with 550 Compound 1-phosphine (row 1), 650 Compound 1-phosphine (row 2), or Copperless CLICK-iT® using DIBO-Alexa647 (row 3), as shown in FIG. 52. A graphical representation of the spot average intensity for the images of FIG. 52 is shown for labeling live (FIG. 53) and fixed (FIG. 54) cells. […]

U2OS cells = experiment: Azido-sugar cell labeling, U2OS cells; type: cell-based, human; details: 100 μM dye-phosphine
From the text: as §1
as §2, with “In fixed cell labeling, the phosphine labeling reaction used 100 μM of the dye-labeled phosphine for three hours at 37° C., and the CLICK-IT® labeling reaction, using DIBO-Alexa dye, used 50 μM of the DIBO Alexa dye for one hour at RT in the presence of 5 μM copper for one hour at RT in the absence of copper.” left out

[2] = tested on: secretory vesicles in HK2, A549, and U2OS cells; experiment: Secretory vesicle labeling with Az-ManNAc; type: cell-based; details: N-azidoacetyl mannosamine; co-localized with PGP9.5
From the text: The inventive and commercial compounds were used to label secretory vesicles in various cell types using azido-sugars. […] Co-localization of Man-650 Compound 1-phosphine, and this labeling was co-localized with PGP9.5, a secreted protein, as shown in FIGS. 65B and 66B (red arrows).

Substance	Purity Before thermal stress [1] [%]	Purity After thermal stress [1] [%]	fluorescence intensity (RFU) of compound-PEG4-GAM conjugates compared with DyLight 549 / DyLight 649 conjugate (mouse IgG immunoglobulin)	band intensity of labeled lysate versus CLICK-iT Alexa 555-alkyne (A549 cell lysate; A549 lysates, three azido-sugars, 10 μg protein per lane, FIG. 63)	live cell labeling (spot average intensity) versus Alexa647-DIBO CLICK-iT (A549 cells)	labeling pattern of lysate on gel (A549 cell lysate; A549 lysates with Az-GalNAc, Az-GlcNAc or Az-ManNAc, FIG. 62)	live cell labeling (spot average intensity) versus Alexa647-DIBO CLICK-iT (HK2 cells; N-azidoacetyl galactosamine)	live cell labeling (spot average intensity) versus Alexa647-DIBO CLICK-iT (HK2 cells; N-azidoacetyl glucosamine)	live cell labeling (spot average intensity) versus Alexa647-DIBO CLICK-iT (HK2 cells; N-azidoacetyl mannosamine)	live cell labeling (spot average intensity) versus Alexa647-DIBO CLICK-iT (U2OS cells; N-azidoacetyl glucosamine)	live cell labeling (spot average intensity) versus Alexa647-DIBO CLICK-iT (U2OS cells; N-azidoacetyl mannosamine)	secretory vesicle labeling [2]
2-((1E,3E)-3-(1-(6-(2-(3-(diphenylphosphino)-4-(methoxycarbonyl)benzamido)ethylamino)-6-oxohexyl)-3-methyl-5-sulfonato-3-(3-sulfonatopropyl)indolin-2-ylidene)prop-1-enyl)-1-(2-methoxyethyl)-3-methyl-3-(3-sulfonatopropyl)-3H-indolium-5-sulfonate [550 Compound 1-phosphine]	96	96	similar	better than CLICK-iT® Alexa 555-alkyne								
2-((1E,3E,5E)-5-(1-(6-(2-(3-(diphenylphosphino)-4-(methoxycarbonyl)benzamido)ethylamino)-6-oxohexyl)-3-methyl-5-sulfonato-3-(3-sulfonatopropyl)indolin-2-ylidene)penta-1,3-dienyl)-1-(2-methoxyethyl)-3-methyl-3-(3-sulfonatopropyl)-3H-indolium-5-sulfonate [650 Compound 1-phosphine]	97	96	similar		better than Alexa647-DIBO CLICK-iT® labeling	different labeling pattern for each of the three incorporated azido-sugars	better than Alexa647-DIBO CLICK-iT® labeling	better than Alexa647-DI BO CLICK-iT® labeling	better than Alexa647-DIBO CLICK-iT® labeling	better than Alexa647-DIBO CLICK-iT® labeling	better than Alexa647-DIBO CLICK-iT® labeling	resulted in labeling of secretory vesicles
